Results on twelve compounds are retold here after publication PMC7697191, “Identification of Novel Influenza Polymerase PB2 Inhibitors Using a Cascade Docking Virtual Screening Approach” (Molecules, 2020).

Series [1] concerns the target H1N1 PB2 CBD (Influenza A virus, UniProt P03427). As to the kind of experiment: SPR binding assay on immobilized H1N1 PB2 CBD. Also on record: species or system influenza A/WSN/1933 (H1N1). The settings on record: Biacore T200, CM5 chip, affinity binding model.
Series [2] in a line: in vitro. Particulars: dog.
The subject of series [3] is A/Hong Kong/8/68 (HK/68, H3N2). It is filed as cell-based. The settings on record: MDCK cells, CPE inhibition.

The structures appear in SMILES notation. A value given as a limit tells only on which side of the number the result lay.

Sequence of H1N1 PB2 CBD (P03427 318-486 limits assumed): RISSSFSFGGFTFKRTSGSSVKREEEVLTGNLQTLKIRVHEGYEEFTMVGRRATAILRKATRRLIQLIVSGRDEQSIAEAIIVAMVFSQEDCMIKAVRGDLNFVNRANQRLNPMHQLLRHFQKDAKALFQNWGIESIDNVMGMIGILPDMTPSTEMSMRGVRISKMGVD

As a reminder, the Kd is a measure of binding affinity in units of concentration. Low readings indicate a tighter complex, high ones a looser complex. Take `Cc1c(-c2ccccc2F)[nH]c2ccc(CNC(=O)CCc3cc(O)no3)cc12` [11C5]: the Kd in series [1] turned out to be 2260 nM. The same compound yielded a CC50 at 72 h in series [2] above 100000 nM.

Compound `Cc1cc(CN2CCOc3c(O)cc(-c4ccccc4Cl)cc3C2)on1` [11C6] displayed a Kd in series [1] of 1700 nM. In series [2], this compound gave a CC50 at 72 h above 100000 nM.

With `O=C(NCc1nc(C2CCCCC2)no1)c1cc(-c2ccccc2F)n[nH]1` [11C8], in series [1], binding was put at a Kd of 6160 nM. Besides, the CC50 at 72 h in series [2] is above 100000 nM.

The compound `c1csc(CNc2nc3nonc3nc2NCCCN2CCOCC2)c1` [11D2] came in with a Kd in series [1] of 210 nM. Further, the CC50 at 72 h in series [2] was above 100000 nM.

In series [1], `C=CCn1cc(CNCc2noc(-c3ccc4c(c3)OCO4)n2)c(C)n1` [11D4] came in with a Kd of 1870 nM. Also, the CC50 at 72 h in series [2] was above 100000 nM.

On to `c1cc(Cn2ccnc2-c2nc3c(s2)CCCC3)cc(-c2nnn[nH]2)c1` [12B1], for which binding in series [1] was characterised by a dissociation constant (Kd) of 6770 nM. In series [2], this compound showed a CC50 at 72 h above 100000 nM.

On to `C=CCn1cc(-c2cc(-c3ccc(C(=O)O)cc3)[nH]c(=N)c2C#N)cn1` [12C5], for which binding in series [1] was put at a Kd of 2440 nM. Moreover, the CC50 at 72 h in series [2] is above 100000 nM.

With `NS(=O)(=O)CCCC(=O)NCc1ccc2[nH]c3c(c2c1)CCCCCC3` [13D7], the Kd in series [1] is 1130 nM. In series [2], this compound had a CC50 at 72 h above 100000 nM.

Consider `CCSc1ncc(-c2cc(-c3c(C)nn(C)c3C)nc(N)c2C#N)cn1` [21A5], for which binding in series [1] was characterised by a dissociation constant (Kd) of 540 nM. In series [2], this compound registered a CC50 at 72 h above 100000 nM.

As for `Cc1cccnc1CCNc1nc2nonc2nc1NCc1cccs1` [21B1], binding in series [1] was put at a Kd of 1950 nM. Besides, the CC50 at 72 h in series [2] was above 100000 nM. For the same compound, the “activity against the A/Hong Kong/8/68 (HK/68, H3N2) strain, in words” value in series [3] is listed as “no activity”.

Compound `CCC(CC)O[C@@H]1C=C(C(=O)O)C[C@H](N)[C@H]1NC(C)=O` [OC, Oseltamivir carboxylate, reference compound] returned a CC50 at 72 h in series [2] above 100000 nM.

In series [1], `O=C(O)[C@H]1C2CCC(CC2)[C@@H]1Nc1nc(-c2c[nH]c3ncc(F)cc23)ncc1F` [VX-787, reference compound] gave a Kd of 54 nM. For the same compound, the CC50 at 72 h in series [2] was above 100000 nM.
